Measurements reported in ChEMBL document CHEMBL1139948, “Design and synthesis of novel hydantoin-containing melanin-concentrating hormone receptor antagonists” (Bioorg Med Chem Lett, 2007).
Active and inactive are the calls of the source. No cut-off for these calls is given here.

What was measured:
[1] = target: Melanin-concentrating hormone receptor 1 (Homo sapiens, UniProt Q99705); assay: Displacement of [125I][Phe13, Tyr19]MCH from human recombinant MCHR1 expressed in CHO cells; assay type: cell-based
Sequence of Melanin-concentrating hormone receptor 1 (Q99705 whole entry): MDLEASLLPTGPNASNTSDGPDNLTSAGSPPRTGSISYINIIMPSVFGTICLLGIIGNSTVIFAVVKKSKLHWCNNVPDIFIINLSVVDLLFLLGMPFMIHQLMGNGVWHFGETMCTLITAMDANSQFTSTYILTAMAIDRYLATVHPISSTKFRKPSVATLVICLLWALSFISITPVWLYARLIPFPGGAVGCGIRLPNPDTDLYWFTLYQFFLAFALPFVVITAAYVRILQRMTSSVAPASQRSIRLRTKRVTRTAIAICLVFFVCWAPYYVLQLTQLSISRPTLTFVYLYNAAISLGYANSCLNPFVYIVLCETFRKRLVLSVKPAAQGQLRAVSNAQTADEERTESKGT

[2] = target: 5-hydroxytryptamine receptor 2A (Homo sapiens, UniProt P28223); assay: Binding affinity to 5HT2A receptor
Sequence of 5-hydroxytryptamine receptor 2A (P28223 whole entry): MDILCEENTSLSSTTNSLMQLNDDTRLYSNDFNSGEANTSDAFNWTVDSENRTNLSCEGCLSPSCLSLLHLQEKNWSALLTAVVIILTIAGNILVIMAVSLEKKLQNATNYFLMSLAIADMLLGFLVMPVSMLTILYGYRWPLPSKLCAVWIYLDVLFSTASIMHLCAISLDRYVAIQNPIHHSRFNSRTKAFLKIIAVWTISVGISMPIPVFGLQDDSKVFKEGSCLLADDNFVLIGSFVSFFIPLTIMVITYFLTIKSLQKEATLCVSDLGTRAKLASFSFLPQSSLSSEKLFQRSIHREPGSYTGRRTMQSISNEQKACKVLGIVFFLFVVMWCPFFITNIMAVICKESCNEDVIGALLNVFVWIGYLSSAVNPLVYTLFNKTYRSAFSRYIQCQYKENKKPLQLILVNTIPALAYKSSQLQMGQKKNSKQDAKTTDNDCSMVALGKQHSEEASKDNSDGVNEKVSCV

[3] = target: T1, 5-hydroxytryptamine receptor 2C (Homo sapiens, UniProt P28335); assay: Binding affinity to 5HT2C receptor
T1 sequence (P28335 whole entry): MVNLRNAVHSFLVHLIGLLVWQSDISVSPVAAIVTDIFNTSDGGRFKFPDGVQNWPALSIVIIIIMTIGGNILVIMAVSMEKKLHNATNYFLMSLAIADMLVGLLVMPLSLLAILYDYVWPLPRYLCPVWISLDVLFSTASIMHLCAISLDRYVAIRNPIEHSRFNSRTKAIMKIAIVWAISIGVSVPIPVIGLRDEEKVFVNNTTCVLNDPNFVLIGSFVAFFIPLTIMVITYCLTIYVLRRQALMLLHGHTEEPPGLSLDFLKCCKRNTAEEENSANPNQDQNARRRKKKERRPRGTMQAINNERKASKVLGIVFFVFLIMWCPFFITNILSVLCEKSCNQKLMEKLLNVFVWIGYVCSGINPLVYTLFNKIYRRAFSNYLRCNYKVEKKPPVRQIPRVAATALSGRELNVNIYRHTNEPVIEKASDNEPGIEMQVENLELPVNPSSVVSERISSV

[4] = target: Melanin-concentrating hormone receptor 2 (Homo sapiens, UniProt Q969V1); assay: Binding affinity to MCHR2
Sequence of Melanin-concentrating hormone receptor 2 (Q969V1 whole entry): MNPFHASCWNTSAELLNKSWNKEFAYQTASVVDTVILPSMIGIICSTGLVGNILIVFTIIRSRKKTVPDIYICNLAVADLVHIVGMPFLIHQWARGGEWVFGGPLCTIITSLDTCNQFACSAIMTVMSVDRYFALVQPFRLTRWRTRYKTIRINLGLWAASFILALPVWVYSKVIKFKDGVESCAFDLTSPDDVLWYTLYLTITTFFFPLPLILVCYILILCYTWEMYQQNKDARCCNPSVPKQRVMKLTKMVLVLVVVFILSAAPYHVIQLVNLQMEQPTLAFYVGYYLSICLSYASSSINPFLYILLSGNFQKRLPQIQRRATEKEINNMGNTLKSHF

[5] = Binding affinity to L-verapamil site of calcium channel; parameters: species or system Homo sapiens
[6] = Permeability across human Caco-2 cell membrane; assay type: ADME, cell-based; conditions: read-out: permeability
Mus musculus [7] = assay: Reduction of cumulative food intake in over-night fasted mouse at 30 mg/kg, ip after 3 hrs relative to control; assay type: functional; parameters: scale not given: the % may be the effect or the level left; conditions: route intraperitoneal
Mus musculus [8] = assay: Antidepressant effect in mouse at 30 mg/kg, ip assessed as reduction in immobility duration after 30 mins by forced swimming test relative to control; assay type: functional; parameters: scale not given: the % may be the effect or the level left; conditions: route intraperitoneal
hERG (KCNH2) = hERG (KCNH2) (Homo sapiens, UniProt Q12809); assay: Inhibition of hERG-mediated current amplitude at 1 uM; assay type: toxicity
Sequence of hERG (KCNH2) (Q12809 whole entry): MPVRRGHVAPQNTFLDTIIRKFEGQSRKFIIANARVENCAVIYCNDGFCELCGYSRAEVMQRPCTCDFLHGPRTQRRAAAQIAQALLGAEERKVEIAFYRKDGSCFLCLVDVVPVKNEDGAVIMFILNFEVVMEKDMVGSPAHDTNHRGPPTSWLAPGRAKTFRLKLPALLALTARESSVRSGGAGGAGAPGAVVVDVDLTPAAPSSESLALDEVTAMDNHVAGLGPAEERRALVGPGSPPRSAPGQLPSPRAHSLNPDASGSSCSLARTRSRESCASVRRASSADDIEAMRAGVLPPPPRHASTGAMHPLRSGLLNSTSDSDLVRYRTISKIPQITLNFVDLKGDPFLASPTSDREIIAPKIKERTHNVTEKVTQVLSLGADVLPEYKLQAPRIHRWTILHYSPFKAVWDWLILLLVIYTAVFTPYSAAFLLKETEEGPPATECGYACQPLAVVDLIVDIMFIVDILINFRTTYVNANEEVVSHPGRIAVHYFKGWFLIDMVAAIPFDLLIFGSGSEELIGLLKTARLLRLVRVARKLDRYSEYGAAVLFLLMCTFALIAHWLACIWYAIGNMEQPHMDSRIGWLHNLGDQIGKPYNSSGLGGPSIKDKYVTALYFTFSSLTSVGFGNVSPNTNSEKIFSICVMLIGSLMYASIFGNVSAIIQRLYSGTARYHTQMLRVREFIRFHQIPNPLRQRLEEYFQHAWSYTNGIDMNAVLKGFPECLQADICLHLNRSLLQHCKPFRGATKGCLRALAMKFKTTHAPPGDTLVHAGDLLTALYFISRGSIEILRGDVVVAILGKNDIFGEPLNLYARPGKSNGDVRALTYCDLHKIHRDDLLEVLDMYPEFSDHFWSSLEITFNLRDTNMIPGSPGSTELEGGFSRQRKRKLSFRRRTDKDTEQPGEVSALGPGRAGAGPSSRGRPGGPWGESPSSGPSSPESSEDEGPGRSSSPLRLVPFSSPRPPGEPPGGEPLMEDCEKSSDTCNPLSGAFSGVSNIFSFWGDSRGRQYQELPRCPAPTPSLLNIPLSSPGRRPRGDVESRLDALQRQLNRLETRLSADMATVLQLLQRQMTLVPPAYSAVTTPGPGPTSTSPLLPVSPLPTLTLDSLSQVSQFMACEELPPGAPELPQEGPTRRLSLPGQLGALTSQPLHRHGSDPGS

Mus musculus [9] = assay: Toxicity in mouse at 10 to 100 mg/kg, ip by Irwins method; assay type: organism-based; parameters: dose 10-100 mg/kg, route intraperitoneal; conditions: in vivo
Mus musculus [10] = assay: Antidepressant effect in mouse at 10 mg/kg, ip assessed as reduction in immobility duration after 30 mins by forced swimming test relative to control; assay type: functional; parameters: scale not given: the % may be the effect or the level left; conditions: route intraperitoneal
Mus musculus [11] = assay: Reduction of cumulative food intake in over-night fasted mouse at 10 mg/kg, ip after 3 hrs relative to control; assay type: functional, organism-based; parameters: dose 10 mg/kg
[12] = target: Muscarinic acetylcholine receptor M4 (Homo sapiens) (UniProt P08173); assay: Binding affinity to muscarinic M4 receptor

Structure (SMILES)	Ki [1]	also measured
O=C1N/C(=C\c2ccc(CN3CCCCC3)cc2)C(=O)N1c1ccc(Oc2ccccc2)cc1	> 5000 nM	–
CC(=O)N1CCN(Cc2ccc(/C=C3\NC(=O)N(c4ccc(Oc5ccccc5)cc4)C3=O)cc2)CC1	2060 nM	–
CN(C)CCNCc1ccc(/C=C2\NC(=O)N(c3ccc(Oc4ccccc4)cc3)C2=O)cc1	707 nM	–
COc1cc(NC(=S)Nc2ccc(Oc3ccccc3)cc2)ccc1OCCN1CCCC1	1090 nM	–
COc1cc(NC(=O)Nc2ccc(-c3ccccc3)cc2)ccc1OCCN1CCCC1	260 nM	–
O=C1N/C(=C\c2ccc(CN3CCCC3)cc2)C(=O)N1c1ccc(Oc2ccccc2)cc1	220 nM	Ki [2]: > 5000 nM; Ki [3]: > 10000 nM; Ki [4]: > 10000 nM; Ki [5]: 330 nM; Papp [6]: > 6 ×10⁻⁶ cm/s; Activity (Mus musculus [7]): 41%; Activity (Mus musculus [8]): -57%; inhibition at 1 µM (hERG (KCNH2)): 73%; Activity (Mus musculus [9]): Non-toxic
CN(C)CCCN1c2ccccc2CCc2ccccc21 [IMIPRAMINE]	–	Activity (Mus musculus [10]): -58%
O=C1N/C(=C\c2ccc(CN3CCC(O)C3)cc2)C(=O)N1c1ccc(Oc2ccccc2)cc1 (racemic)	176 nM	Activity (Mus musculus [7]): 47%
O=C1N/C(=C\c2ccc(CN3CCN(c4ccccc4)CC3)cc2)C(=O)N1c1ccc(Oc2ccccc2)cc1	> 5000 nM	–
CC(C)CC(N(C)C)C1(c2ccc(Cl)cc2)CCC1 (centres undefined)	–	Activity (Mus musculus [11]): Active
CN(C)Cc1ccc(/C=C2\NC(=O)N(c3ccc(Oc4ccccc4)cc3)C2=O)cc1	341 nM	–
O=C1N/C(=C\c2ccc(CN3CCN(Cc4ccccc4)CC3)cc2)C(=O)N1c1ccc(Oc2ccccc2)cc1	> 5000 nM	–
COc1cc(N2C(=O)CN(c3ccc(Oc4ccccc4)cc3)C2=O)ccc1OCCN1CCCC1	365 nM	–
CN(C)CC1CCc2cc(NC(=O)c3ccc(-c4ccc(F)cc4)cc3)ccc2C1 (centres undefined)	38 nM	–
O=C1N/C(=C\c2ccc(CNCc3ccccc3)cc2)C(=O)N1c1ccc(Oc2ccccc2)cc1	> 5000 nM	–
O=C1N/C(=C\c2ccc(CN3CCOCC3)cc2)C(=O)N1c1ccc(Oc2ccccc2)cc1	> 5000 nM	–
COc1cc(NC(=O)Nc2ccc(Oc3ccccc3)cc2)ccc1OCCN1CCCC1	101 nM	–
COc1cc(NC(=O)c2ccc(Oc3ccccc3)cc2)ccc1OCCN1CCCC1	82 nM	–
COc1cc(NC(=O)c2ccc(-c3ccccc3)cc2)ccc1OCCN1CCCC1	25 nM	–
COc1cc(N2CC(=O)N(c3ccc(Oc4ccccc4)cc3)C2=O)ccc1OCCN1CCCC1	164 nM	Ki [2]: 330 nM; Ki [3]: 880 nM; Activity (Mus musculus [7]): 51%; Ki [12]: 370 nM
O=C1N/C(=C\c2ccc(CNC3CCCC3)cc2)C(=O)N1c1ccc(Oc2ccccc2)cc1	> 5000 nM	–
O=C1N/C(=C\c2ccc(CN3CCCCCC3)cc2)C(=O)N1c1ccc(Oc2ccccc2)cc1	357 nM	–
COc1cc(Nc2nc(-c3ccc(Oc4ccccc4)cc3)cs2)ccc1OCCN1CCCC1	1000 nM	–
COc1cc(N2CC(=O)N(c3ccc(-c4ccccc4)cc3)C2=O)ccc1OCCN1CCCC1	415 nM	–
COc1cc(N2C(=O)CN(c3ccc(-c4ccccc4)cc3)C2=O)ccc1OCCN1CCCC1	> 5000 nM	–
